{"source": "patent US20210154317A1", "about": "“COMPOSITIONS AND METHODS FOR THE TREATMENT OF VIRAL INFECTIONS” (Silverback Therapeutics, Inc., priority 2017, published 2021)", "test_system": "monax PBMC", "assay": "Marmota TNFα expression in stimulated PBMC by real time PCR", "type": "cell-based", "settings": "TaqMan real time PCR", "description": "Total RNA was extracted from stimulated monax PBMC using the RNeasy®Mini kit (Qiagen, Maryland, MD) according to the manufacturer's protocol. Briefly, cells were pelleted and resuspended in 600 ul RLT buffer. The sample was vortexed and then run through a QIAshredder column. RNA was extracted from the supernatant and eluted with a 30 uL volume. RNA purity was assessed (A260/A280) using a Nanodrop one spectrophotometer (Thermofisher Scientific, Waltham, Mass., USA). For removal of genomic DNA, 800 ng RNA was incubated with 2 units DNase I (RNase-free) (New England Biolabs, Ipswich, Mass., USA) in DNase reaction buffer at 37° C. for 10 min. […]\nThe generation of oligonucleotide dimers for each TaqMan primer pair was assessed using Power SYBR®Green PCR Master-Mix (Foster City, Calif., Applied Biosystems) with melting curve analysis, according to the manufacturer's instructions. […] Data were analyzed using the Step One Software to generate Ct value for each sample.\nA plot of Ct versus log copy number standard curve was generated using synthesized monax TNFα cDNA standard. The Ct value for each data point was then determined and normalized to the standard curve to obtain the copy number. […]", "data": [{"smiles": "CCOCc1nc2c(N)nc3ccccc3c2n1CC(C)(C)OCCNC(=O)C(C)(C)N", "values": [{"measurement": "monax TNFα gene activation (copy number per ng of mRNA)", "value": "potent activation"}]}, {"smiles": "CCCN(CCC)C(=O)C1=Cc2ccc(C(=O)Nc3cnc4c(c3)CNCC4)cc2N=C(N)C1", "note": "[Compound 1.50, 2-amino-N^4,N^4-dipropyl-N^8-(5,6,7,8-tetrahydro-1,6-naphthyridin-3-yl)-3H-benzo[b]azepine-4,8-dicarboxamide]", "values": [{"measurement": "monax TNFα gene activation (copy number per ng of mRNA)", "value": "potent activation"}]}]}
